Here are results for five compounds from paper PMC5175340, “eIF2β is critical for eIF5-mediated GDP-dissociation inhibitor activity and translational control” (Nucleic Acids Research, 2016).

pKd: −log10 of the molar value.

In assay [1] the test system is HIS4-LacZ. The arrangement: method as in PMID 16153175. The note with it: by GAAC via increased GCN4 translation in the presence of 3AT; cited from earlier work.
In assay [2] the test system is HIS4-LacZ. The experiment in a line: β-galactosidase assay of HIS4-LacZ fusion. The class given is cell-based, yeast. The note with it: sif285-1 cells bearing GCD6, 3AT treatment. Here is the method:
Measurement of β-galactosidase levels from a HIS4-LacZ fusion genomically-integrated at ura3-52 was performed exactly as described ([36]) using whole protein extracts from cells grown in SC medium lacking histidine and uracil or following addition of 10 mM 3AT for 6 h. Units are nmole o-nitrophenyl-β-D-galacto-pyranoside cleaved/min/μg total protein ± SE, n = 3.

The next assay deals with sif285-1 GCN2 cells. The experiment in a line: Growth on SD ±3AT media. The assay is classed as cell-based, yeast. The note with it: sif285-1 cells transformed with WT GCN2 plasmid. Here is the method: Strains used and generated in this work are derivatives of S288c and are described in Supplementary Table S1. Cell growth was performed at 30°C in standard yeast rich (YPD), synthetic defined minimal (SD) or synthetic complete (SC) media lacking nutrients for plasmid selection. All media have 2% glucose as a carbon source ([25]). 3-Amino-1,2,4-triazole (3AT) (Fluka) was added where indicated. For serial dilution growth assays, cells were grown to A600 = 0.6, diluted to 0.1 and 2–3 μl of 10-fold dilutions were spotted on the agar surface. Plasmid shuffling to select for loss of URA3 plasmids employed 5-fluoro-orotic acid (5-FOA; Sigma-Aldrich), while loss of LEU2 plasmids relied on passive loss during unselected growth and subsequent screening. Mating type switching employed HO plasmid pAV1621 (pHO1.5) followed by 5-FOA, sporulation, tetrad dissection and mating type testing ([25]). gcd6Δ sui3Δ double deletion strains (GP7216-19) were made by polymerase chain reaction (PCR) amplifying gcd6Δ::KanMX cassette from a BY4743 gcd6Δ::KanMX/GCD6 diploid strain (GP4146) and transforming the DNA fragment into sui3Δ gcn2Δ [SUI3-Flag TRP1] [GCD6 URA3] strains to generate G418 resistant cells unable to lose the covering GCD6 plasmid upon 5-FOA selection.

Assay [3] deals with T1, eIF2 (β E189K), eIF2βE189K (Saccharomyces cerevisiae, UniProt P09064+P32481, E189K).
T1 construct: purified apo-eIF2 heterotrimer; V5-sui3-E189K (N-terminal V5 tag on eIF2β), SUI2, His6-GCD11; nucleotide-free after EDTA dialysis
The experiment in a line: Steady-state fluorescence titration of 100 nM BODIPY-FL nucleotide with increasing apo-eIF2 (490 nm excitation, 509 nm emission) in 30 mM HEPES, 100 mM KCl, 10 mM MgCl2, pH 7.4, at room temperature, fitted to a single-site binding model. Here is the method: (§1) To assay nucleotide affinity, fluorescence intensity of 100 nM of BODIPY-FL-GDP or BODIPY-FL-GTP (Thermo Fisher Scientific) in 180 μl of assay buffer (30 mM HEPES, 100 mM KCl, 10 mM MgCl2, pH 7.4) was measured using a Fluoromax-4 spectrophotometer (Horiba) (490 nm excitation, 509 nm emission). Yeast Met–tRNAi was assayed in a similar manner using 20 nM BOP-N-Met–tRNAi (tRNA probes) but with the addition of 1 mM GTP. Change in fluorescence intensity was measured upon addition of increasing amounts of apo–eIF2, incubating for 5 min at room temperature each time. Each measurement was blanked against a control without nucleotide to account for any affect of eIF2 and data were corrected for dilution effects caused by volume addition and normalized to starting values before being fitted to a single site binding model: y = 1 + [(ΔFmax - 1)*(x/(x + Kd))].
(§2) eIF2 was purified from yeast strains GP7145 and GP7146 expressing V5-sui3-E189K or the V5-SUI3 derivatives of eIF2β by sequential nickel affinity, HiTrap Heparin and HiTrap Q sepharose chromatography as described ([14]). To obtain apo–eIF2 free from nucleotide, eIF2 was dialysed with EDTA (30 mM HEPES, 100 mM KCl, 1 mM DTT, 1 mM EDTA, 10% glycerol, pH 7.4) then with magnesium (30 mM HEPES, 100 mM KCl, 1 mM DTT, 0.1 mM MgCl2, 10% glycerol, pH 7.4).
(§3) Figure 4. […] (A) Affinity (Kd) of GDP, GTP and Met–tRNAi to purified WT and mutant (β E189K) apo–eIF2 complexes measured by monitoring the fluorescence intensity of 100 nM BODIPY-FL-GDP (left), 100 nM BODIPY-FL-GTP (middle) or 20 nM BOP-N-Met–tRNAi with 1 mM GTP (right). […] K1/2 and Kmax values were determined from curve fitting y = [(Kmax × x)/(K1/2 + x)] + c. (C) Western blotting of IP of Flag-eIF2β, Flag-E189K and an untagged control from cells showing its co-association with known binding proteins. Quantification of at least three repeats using Li-Cor fluorescent secondary antibodies ±SE. […] Tif5 is indicated with an arrow, ‘♦’ marks a non-specific band.

The target in another assay is T2, eIF2 WT (Saccharomyces cerevisiae, UniProt P32481).
T2 construct: gene GCD11; purified apo-eIF2 heterotrimer; V5-SUI3 (N-terminal V5 tag on eIF2β), SUI2, His6-GCD11; nucleotide-free after EDTA dialysis
The description is as above. Here is the method: as §1, §2, §3

A short description of assay [4]: GDP dissociation assay, intrinsic BODIPY-GDP off-rate. The class given is binding. The note with it: 20 nM eIF2•BODIPY-GDP, 1 mM unlabelled GDP, 0 nM eIF2B. Here is the method:
(§4) Fluorescent eIF2•BODIPY-GDP binary complex was formed by incubating apo–eIF2 with a 2× excess of BODIPY-FL-GDP (Thermo Fisher Scientific) for 20 min at room temperature. Excess nucleotide was removed by passing through a G-50 sephadex column (GE Healthcare). Labelling efficiency was calculated to exceed 90%. […] K1/2 and Kmax values were determined from curve fitting y = [(Kmax × x)/(K1/2 + x)] + c.

The next assay deals with eIF5. As to the kind of experiment: eIF5 GDI activity, BODIPY-GDP release with GST-eIF5. The note with it: eIF2•BODIPY-GDP 20 nM, purified eIF5 0–80 nM. The class given is biochemical, yeast. Here is the method:
as §4
We therefore decided to assess eIF5 GDI activity directly. We monitored eIF5 GDI activity by incubating eIF2•BODIPY-GDP (20 nM) with purified eIF5 (0–80 nM) and recorded the fluorescence change upon dissociation of BODIPY-GDP from eIF2.

A further assay deals with Met–tRNAi. The experiment in a line: Steady state fluorescence, BOP-N-Met-tRNAi binding to apo-eIF2. The arrangement: species or system Yeast. The conditions noted are these: 20 nM BOP-N-Met-tRNAi with 1 mM GTP, purified apo-eIF2. Here is the method:
as §1

The target of assay [5] is eIF2^βE189K (V5-eIF2β-E189K, eIF2α, His6-eIF2γ), purified (S. cerevisiae) (UniProt P09064).
eIF2^βE189K (V5-eIF2β-E189K, eIF2α, His6-eIF2γ), purified (S. cerevisiae), sequence (P09064 whole entry E189K, chain 1 of 3): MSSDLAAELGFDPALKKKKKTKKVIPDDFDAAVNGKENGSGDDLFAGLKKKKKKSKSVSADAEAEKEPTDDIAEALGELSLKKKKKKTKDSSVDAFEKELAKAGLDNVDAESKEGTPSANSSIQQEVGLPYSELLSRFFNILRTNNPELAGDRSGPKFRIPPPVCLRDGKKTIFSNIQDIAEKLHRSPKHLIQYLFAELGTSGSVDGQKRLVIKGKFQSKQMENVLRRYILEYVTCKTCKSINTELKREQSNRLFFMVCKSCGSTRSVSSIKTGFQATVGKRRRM
eIF2^βE189K (V5-eIF2β-E189K, eIF2α, His6-eIF2γ), purified (S. cerevisiae), sequence (chain, as listed by the source E189K E189K, chain 2 of 3): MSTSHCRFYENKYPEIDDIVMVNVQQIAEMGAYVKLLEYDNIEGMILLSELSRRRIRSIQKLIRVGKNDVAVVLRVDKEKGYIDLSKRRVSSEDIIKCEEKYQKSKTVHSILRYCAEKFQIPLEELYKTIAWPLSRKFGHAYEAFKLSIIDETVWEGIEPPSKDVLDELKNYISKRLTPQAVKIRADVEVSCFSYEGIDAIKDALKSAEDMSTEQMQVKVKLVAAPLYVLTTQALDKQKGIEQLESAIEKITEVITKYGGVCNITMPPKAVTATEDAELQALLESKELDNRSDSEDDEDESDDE
eIF2^βE189K (V5-eIF2β-E189K, eIF2α, His6-eIF2γ), purified (S. cerevisiae), sequence (chain, as listed by the source E189K E189K, chain 3 of 3): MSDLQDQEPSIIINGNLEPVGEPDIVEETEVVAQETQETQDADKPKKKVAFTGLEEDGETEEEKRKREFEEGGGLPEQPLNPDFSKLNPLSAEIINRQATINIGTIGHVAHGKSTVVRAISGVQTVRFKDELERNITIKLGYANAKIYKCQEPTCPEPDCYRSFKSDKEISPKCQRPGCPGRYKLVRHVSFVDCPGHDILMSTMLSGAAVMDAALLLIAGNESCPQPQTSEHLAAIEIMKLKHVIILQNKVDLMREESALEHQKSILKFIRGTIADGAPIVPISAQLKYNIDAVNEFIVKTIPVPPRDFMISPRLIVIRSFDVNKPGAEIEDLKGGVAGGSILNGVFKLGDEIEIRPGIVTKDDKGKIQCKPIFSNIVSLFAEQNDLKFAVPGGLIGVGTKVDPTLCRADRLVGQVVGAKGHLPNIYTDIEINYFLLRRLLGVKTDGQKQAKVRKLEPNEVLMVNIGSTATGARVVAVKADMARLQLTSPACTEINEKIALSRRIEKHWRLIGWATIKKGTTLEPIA

T2 sequence (P32481 whole entry): as the sequence (chain, as listed by the source E189K E189K, chain 3 of 3) above
T2 sequence (P20459 whole entry partner): as the sequence (chain, as listed by the source E189K E189K, chain 2 of 3) above
T2 sequence (P09064 whole entry partner): as the sequence (P09064 whole entry E189K, chain 1 of 3) above, with K189E counted along it
T1 sequence (P09064 whole entry E189K): as the sequence (P09064 whole entry E189K, chain 1 of 3) above
T1 sequence (P32481 whole entry): as the sequence (chain, as listed by the source E189K E189K, chain 3 of 3) above
T1 sequence (P20459 whole entry, stated change not applied, further chain): as the sequence (chain, as listed by the source E189K E189K, chain 2 of 3) above
eIF5, sequence (P38431 whole entry): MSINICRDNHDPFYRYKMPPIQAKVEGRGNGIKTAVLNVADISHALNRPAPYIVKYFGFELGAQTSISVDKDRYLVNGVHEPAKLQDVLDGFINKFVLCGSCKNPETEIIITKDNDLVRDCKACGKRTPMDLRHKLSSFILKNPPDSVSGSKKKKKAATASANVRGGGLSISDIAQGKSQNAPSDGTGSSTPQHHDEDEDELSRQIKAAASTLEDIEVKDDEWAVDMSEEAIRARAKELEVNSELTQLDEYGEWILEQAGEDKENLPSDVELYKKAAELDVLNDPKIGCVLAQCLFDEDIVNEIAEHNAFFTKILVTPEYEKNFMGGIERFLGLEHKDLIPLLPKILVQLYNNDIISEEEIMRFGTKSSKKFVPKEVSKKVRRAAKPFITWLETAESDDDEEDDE
eIF5, sequence (P32481 whole entry, further chain): as the sequence (chain, as listed by the source E189K E189K, chain 3 of 3) above
eIF5, sequence (P20459 whole entry, further chain): as the sequence (chain, as listed by the source E189K E189K, chain 2 of 3) above

`Nc1nc[nH]n1` [3AT, 3-Amino-1,2,4-triazole]: in the assay on HIS4-LacZ [1], the HIS4 transcription derepression is approximately 2 fold. Moreover, the HIS4-LacZ expression entry with HIS4-LacZ [2] is “not derepressed”. Besides, the cell growth result with sif285-1 GCN2 cells was “impaired”.
What is called pKd is the Kd on a negative log10 scale, so that one unit is a factor of ten. A low value points to a large Kd. Take `Cc1cc(C)n2c1C=C1C=CC(CCC(=O)NCCNC(=O)OC3C(COP(=O)(O)OP(=O)(O)O)OC(n4cnc5c(=O)[nH]c(N)nc54)C3O)=[N+]1[B-]2(F)F` (centres unmarked) [BODIPY-FL-GDP, guanosine 5'-diphosphate, BODIPY FL 2'-(or-3')-O-(N-(2-aminoethyl)urethane)]: the pKd was 7.71 in [3] and 7.72 at eIF2 WT.
Consider `Cc1cc(C)n2c1C=C1C=CC(CCC(=O)NCCNC(=O)OC3C(COP(=O)(O)OP(=O)(O)OP(=O)(O)O)OC(n4cnc5c(=O)[nH]c(N)nc54)C3O)=[N+]1[B-]2(F)F` (centres unmarked) [BODIPY-FL-GTP, guanosine 5'-triphosphate, BODIPY FL 2'-(or-3')-O-(N-(2-aminoethyl)urethane)], for which the pKd in [3] is 7.49; at eIF2 WT it was 7.45.
For the compound “eIF2 WT: Wild-type yeast translation initiation factor eIF2 complex purified from an overexpression yeast strain (V5-SUI3)”, in assay [4], the “Koff BODIPY-GDP” value was found to be 0.00487 ± 0.000417 s⁻¹. In the assay with eIF5, the “stabilization of GDP binding by eIF5 (GDI activity)” value is “stabilized by eIF5”. In addition, the pKd at Met–tRNAi is 8.55.
“eIF2B, P14741 1-305; P32502 1-381; P09032 1-578; P12754 1-651; P32501 1-712” gave a K1/2 of eIF2B for GEF-promoted release of BODIPY-FL-GDP from purified eIF2•BODIPY-GDP (20 nM), room temperature in [5] of 92.6 nM.
